Values of other authors in patent US20240248099A1, “BIOMARKERS FOR AGE-RELATED MACULAR DEGENERATION” (BELITE BIO, LLC, priority 2021, published 2024).

Biological target: T1, RBP4 (Homo sapiens, UniProt P02753)
T1 construct: host or cells: serum of AMD patients (endogenous circulating protein)

In the case of `CC1=C(/C=C/C(C)=C/C=C/C(C)=C/C(=O)Nc2ccc(O)cc2)C(C)(C)CCC1` [fenretinide], the “incidence of choroidal neovascularization onset” value (246 AMD patients with only geographic atrophy, 100 mg or 300 mg fenretinide or placebo, 2 years, especially in the higher dose group) is given as “reduction in the incidence of choroidal neovascularization onset”, the “growth rate of geographic atrophy, overall cohort” value (overall cohort, insufficient number of subjects achieving serum RBP4 less than 1 μM) is given as “no statistically significant retardation of the growth rate of geographic atrophy” and the “rate of geographic atrophy progression versus serum RBP4 level” value (patients who achieved RBP4 levels below 1 μM (approximately 20 μg/ml) after fenretinide treatment) is given as “a lower serum RBP4 level was correlated with a slower rate of geographic atrophy progression”.
